Measured values from PMC2567432 (PLoS ONE, 2008).

Columns and labels:
[1] = system: IL-1β release from LPS-stimulated blood cells; assay: Whole blood assay, LPS-induced IL-1β release (cytometric bead array); assay type: cell-based; conditions: Homo sapiens; heparinized whole blood, LPS 10 ng/ml, 6 h, 37°C
Method: Figure 2 Effect of polyphenols on IL-1β release from LPS-stimulated blood cells. Heparinized whole blood was stimulated by LPS in the absence or presence of polyphenols at increasing concentrations and incubated for 6 h at 37°C with 5% CO2. (A) Released IL-1β as measured in cell supernatants. Samples without additives but LPS were set at 100%. (B) The calculated […] values of the respective polyphenols. Data represent mean±S.D. of independent experiments (n = 6).
Whole blood assay was performed as previously described. Accordingly, LPS (10 ng/ml), test substances and 200 µl heparinized human blood of healthy donors, obtained from the blood bank of the University of Leipzig, were co-incubated with serum-free medium (RPMI-SF, 1 ml final volume) in 24-well culture plates for 6 h at 37°C with 5% CO2. Samples were removed, centrifuged at 2000×g for 10 min and supernatants were stored at −20°C until assaying for inflammatory cytokines.
Assessment of cytokine levels in supernatants of human blood cell cultures was accomplished using Cytometric Bead Array (CBA™, BD Biosciences, San Jose, U.S.A). The procedure was carried out according to the manufacturer's instruction. Fluorescence measurement and analysis were performed using a FACSCalibur and the CellQuest software (BD Biosciences).

LDH in JIMT-1 cells = assay: LDH activity in cytosolic extract of treated cells; assay type: cell-based, human; conditions: JIMT-1, 24 h
Method: (§1) Cells were harvested and the specific activity of Glo1 and LDH was determined in the cytosolic extract. (B) Semi-quantitative analysis of protein content as performed by Western blot using specific antibodies against β-actin and Glo1. The blot was developed by chemoluminescense detection. […] Data represent the mean±S.D. of independent experiments (n = 6).
LDH activity was spectrophotometrically assayed in the cytosolic extract or in the of cell cultures by adding aliquots to 1 ml reaction buffer (50 mM Na2HPO4, pH 7.0, 0.15 mM NADH, and 0.3 mM pyruvate). Enzyme activity was recorded at 340 nm.

JIMT-1 cells [2] = assay: Cellular ATP content (CellTiter-Glo), JIMT-1; assay type: cell-based, human; conditions: JIMT-1, 6 h; curcumin 0–100 µM, MGO 0–1000 µM
Method: (§2) Cellular ATP content was determined using the CellTiter-Glo® Luminescent Cell Viability Assay. Data represent the mean±S.D. of independent experiments (n = 12).
(§3) Cell ATP content was determined by means of the CellTiter-Glo® Luminescent Cell Viability Assay according to the manufacturer's instructions (Promega, Madison, USA). […] After 6-h incubation, cells were mixed with test reagents and luminescence was read according to the manufacturer's instructions. A standard curve was prepared from ATP (1 µM to 10 nM) in medium.

astrocytoma 1321N1 cells [3] = assay: D-lactate release into medium; assay type: cell-based; conditions: 1321N1, 20 µM curcumin, 24 h; control 34.6±6 µM
Method: as §1
The determination of D-lactate and L-lactate in supernatants of astrocytoma 1321N1 cells was performed by an enzymatic method based on the oxidation of L-lactate and D-lactate to pyruvate by NAD in the presence of L-LDH or D-LDH[63].

Glo1 in JIMT-1 cells = system: T1, Glo1 in JIMT-1 cells; assay: Specific Glo1 activity in cytosolic extract of treated cells; assay type: cell-based, human; conditions: JIMT-1, 24 h
T1 construct: endogenous in cells; host or cells: JIMT-1 breast carcinoma cells (ACC 589; DSMZ)
Method: Cells were harvested and the specific activity of Glo1 and LDH was determined in the cytosolic extract. (B) Semi-quantitative analysis of protein content as performed by Western blot using specific antibodies against β-actin and Glo1. The blot was developed by chemoluminescense detection. […] Data represent the mean±S.D. of independent experiments (n = 6). Tumor cells were cultured in RPMI medium containing 10% fetal calf serum (RPMI-FCS) (PC-3, JIMT-1, MDA-MD 231) or in DMEM-FCS (astrocytoma 1321N1 cells) containing penicillin/streptomycin (100 U penicillin/ml; 100 µg streptomycin/ml) at 37°C/5% CO2. Cytosolic protein extracts of tumor cells were prepared using extraction buffer composed of 25 mM Tris, 2 mM EDTA, 10% Glycerol, 1% Triton ×100, 2 mM DTT, 1mM PMSF, pH. 7.0 containing 0.3% protease inhibitor cocktail. Protein content was determined according to Bradford. Specific activity of enzymes analyzed in cell extracts was expressed as U/mg protein. […] The inhibition constant, Ki value of the inhibitors was evaluated by Dixon plot showing the reciprocal of enzyme velocity against the inhibitor concentration at variable concentrations of the substrate. Human Glo2 (E.C.3.1.2.6) was measured using the substrate S-lactoylglutathione as described earlier.

[4] = system: breast cancer JIMT-1 cells; assay: Cell proliferation WST-1 assay, JIMT-1; assay type: cell-based, human
Method: Figure 3 Growth inhibition of different tumor cell lines by polyphenols. […] Following 24-h incubation, cell proliferation was evaluated using the WST-1 assay.
Tumor cells were cultured in RPMI medium containing 10% fetal calf serum (RPMI-FCS) (PC-3, JIMT-1, MDA-MD 231) or in DMEM-FCS (astrocytoma 1321N1 cells) containing penicillin/streptomycin (100 U penicillin/ml; 100 µg streptomycin/ml) at 37°C/5% CO2. Cytosolic protein extracts of tumor cells were prepared using extraction buffer composed of 25 mM Tris, 2 mM EDTA, 10% Glycerol, 1% Triton ×100, 2 mM DTT, 1mM PMSF, pH. 7.0 containing 0.3% protease inhibitor cocktail. Protein content was determined according to Bradford. Specific activity of enzymes analyzed in cell extracts was expressed as U/mg protein.
Cell proliferation/vitality of tumor cells (96-well plates; 5000 cells/well) and primary human hepatocytes (24-well plates; 0.25×10^6 cells/well) was assayed using the WST-1 assay according to manufacturer's instructions. Trypan blue exclusion was performed by staining cells with 0.4% aqueous trypan blue solution according to the manufacturer's instructions.

JIMT-1 cells [5] = assay: Glutathione (GSH) level in cytosolic extract, JIMT-1; assay type: cell-based, human; conditions: JIMT-1, 50 µM, 24 h
Method: Cells were harvested and GSH concentration was determined in the cytosolic extract. Data represent the mean±S.D. of independent experiments (n = 6).
GSH was determined using DTNB method. Briefly, cytosolic extract of tumor cells were precipitated by 5% sulfosalicylic acid neutralization, aliquots were mixed with DTNB and absorbance was read at 412 nm against a standard solution of GSH.

astrocytoma 1321N1 cells [6] = assay: Cellular ATP content (CellTiter-Glo), 1321N1; assay type: cell-based; conditions: 1321N1, 6 h; curcumin 0–100 µM, MGO 0–1000 µM
Method: as §2, §3

COc1cc(C=CC(=O)CC(=O)C=Cc2ccc(O)c(OC)c2)ccc1O [curcumin, 1,7-bis(4-hydroxy-3-methoxyphenyl)-1,6-heptadiene-3,5-dione]
IC50 [1]: 7.9 µM
LDH activity in cytosolic extract (LDH in JIMT-1 cells): increased at higher curcumin concentrations
cellular ATP content (JIMT-1 cells [2]): decreased cellular ATP in a concentration-dependent manner
D-lactate concentration in the medium (astrocytoma 1321N1 cells [3]): 22 ± 1.9 µM
specific Glo1 activity in treated cells (Glo1 in JIMT-1 cells): decreased dose-dependently
inhibition at 50 µM ([4]; Homo sapiens, JIMT-1, 50 µM, 24 h): ~30%
concentration giving strong anti-proliferative effects ([4]; JIMT-1, 24 h, WST-1): above 50 µM
GSH diminished by (JIMT-1 cells [5]): approximately 20%
cellular ATP content (astrocytoma 1321N1 cells [6]): decreased cellular ATP in a concentration-dependent manner
